In PubChem BioAssay (NCI):
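These data come from cells grown in 96-well plates and exposed to compound for 48 hours at five concentrations. TGI marks complete inhibition of growth.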

How the values were obtained:
Test in all cases: NCI tumour cell line growth inhibition, 48 h
A498 renal = test system: A498 renal
EKVX NSCLC = test system: EKVX NSCLC
HCT-15 colon = test system: HCT-15 colon
HOP-62 NSCLC = test system: HOP-62 NSCLC
M14 melanoma = test system: M14 melanoma
MDA-MB-231 breast = test system: MDA-MB-231 breast
MDA-N = test system: MDA-N
SF-295 CNS = test system: SF-295 CNS
SK-OV-3 ovarian = test system: SK-OV-3 ovarian
UO-31 renal = test system: UO-31 renal
CCRF-CEM leukemia = test system: CCRF-CEM leukemia
LOX IMVI melanoma = test system: LOX IMVI melanoma
OVCAR-3 ovarian = test system: OVCAR-3 ovarian

SMILES	TGI (A498 renal) [µM]	TGI (EKVX NSCLC) [µM]	TGI (HCT-15 colon) [µM]	TGI (HOP-62 NSCLC) [µM]	TGI (M14 melanoma) [µM]	TGI (MDA-MB-231 breast) [µM]	TGI (MDA-N) [µM]	TGI (SF-295 CNS) [µM]	TGI (SK-OV-3 ovarian) [µM]	TGI (UO-31 renal) [µM]	TGI (CCRF-CEM leukemia) [µM]	TGI (LOX IMVI melanoma) [µM]	TGI (OVCAR-3 ovarian) [µM]
Nn1c(CNc2ccc(-c3nnc(Nc4ccc(Cl)cc4)n3N)cc2)nnc1Nc1ccc(Cl)cc1	> 100	> 100	> 100	93	> 100	> 100	> 100	> 100	> 100	> 100			
OC(c1cc(C(O)(C(F)(F)F)C(F)(F)F)ncn1)(C(F)(F)F)C(F)(F)F	> 10	> 10	> 10	> 10	> 10	> 10	> 10	> 10	> 10	> 10	> 10	> 10	> 10
COC(=O)N1CC[C@@H]2CCC=C(c3cccc4c3OCO4)[C@@H]21	> 100	> 100	> 100	> 100	> 100	> 100	> 100	> 100	> 100	> 100	> 100	> 100	> 100
C=CCCCCOC1C=CC(OC(C)=O)C(COC(C)=O)O1 (centres undefined)	> 100	> 100	> 100	> 100	> 100	> 100	> 100	> 100	> 100	> 100	> 100	> 100	> 100
Oc1c(C(O)(c2ccccc2)c2ccc3ccccc3c2O)ccc2ccccc12	30.6	50.7	25.9	35.6	31	33.6	28.5	47.9	38.3	24.7		31.3	30.8
CCOC(=O)c1ccc(N=C2SC(=S)N(c3ccc(F)cc3)C2=Nc2ccc(C(=O)OCC)cc2)cc1	> 100	63.9	21.4	> 89	25.6	25.2	35.4	> 100	> 100	28	> 57.6	17.9	> 53.7
CN1CN(c2ccccc2)C2(CCNCC2)C1=O	> 100	> 100	> 100	> 100	> 100	> 100	> 100	> 100	> 100	> 100	> 100	> 100	> 100
CC(C)(C)OC(=O)N1C(C2=COc3ccccc3O2)=COc2ccccc21	40.2	52.3	> 100	45.3	> 100	69.6	> 100	83.5	> 100	> 100		37.3	47.2
CSC1=N/C(=C\c2cccs2)C(=O)N1CN1CCOCC1	> 100	> 100	> 100	> 100	> 100	> 100	> 100	> 100	> 100	> 100	> 100	> 100	> 100
C/C(Cl)=N\OC(=O)Nc1ccc([N+](=O)[O-])cc1	30.5	35.2	34.2	> 100	26.1	37.1	25.1	31.8	> 32.6	11.4	> 100	9.93	6.1
COc1ccc2c(c1)/C(=C(\C(Cl)=C(\Cl)N1CCCCC1)[N+](=O)[O-])N2	> 100	> 100	> 100	> 100	> 100	> 100	> 100	> 100	> 100	> 100	> 100	> 100	> 100
CCCCC1Cc2cc(O)ccc2-c2n1c1cc(O)ccc1[n+]2C (centres undefined) (tested in a mixture with another compound)	> 100	> 100	> 88.3	> 100	> 100	> 100	> 100	> 60.1	> 100	> 100	> 100	> 100	98.7
C1CNCCN2CCCNCCN(C1)CC2	> 100	> 100	> 100	> 100	> 100	> 100	> 100	> 100	> 100	> 100	37.9	> 100	> 100
CCCCc1ccc(Nc2nc3c(ncn3C3OC(COC(C)=O)C(OC(C)=O)C3OC(C)=O)c(=O)[nH]2)cc1 (centres undefined)	> 100	> 100	> 100	35.5	41.2	31.1	35.4	53.1	71.1	> 100	35.1	36	31.6
O=C1/C(=C/c2ccc(O)cc2)NC(=S)N1CN1CCCCC1	> 100	> 100	> 100	> 100	> 100	> 100	> 100	> 100	> 100	> 100	> 100	> 100	> 100
CCOC(=O)C(SCCO)C(C(=O)OCC)n1ccc(N)nc1=O (centres undefined)	> 100	> 100	> 100	> 100	> 100	> 100	> 100	> 100	> 100	> 100	> 100	> 100	> 100
COc1ccc2nc(-c3ccc(OC(=O)N(C)C)cc3)cn2c1	> 100	> 100		> 100	> 100	> 100	> 100	> 100	> 100		> 100	> 100	> 100
N#CS/C(C(Cl)=C(Cl)Cl)=C(/Cl)[N+](=O)[O-]	38.2	6.76	6.59	33.4	2.79	11.9	3.18	45.4	31.2	3.1	1.18	2.37	3.1

SMILES	TGI (A498 renal) [µM]	TGI (EKVX NSCLC) [µM]	TGI (HCT-15 colon) [µM]	TGI (HOP-62 NSCLC) [µM]	TGI (M14 melanoma) [µM]	TGI (MDA-MB-231 breast) [µM]	TGI (MDA-N) [µM]	TGI (SF-295 CNS) [µM]	TGI (SK-OV-3 ovarian) [µM]	TGI (UO-31 renal) [µM]	TGI (CCRF-CEM leukemia) [µM]	TGI (LOX IMVI melanoma) [µM]	TGI (OVCAR-3 ovarian) [µM]
O=C(CC(=O)c1ccncc1)c1ccccc1	> 100	> 100	> 100	> 100	> 100	> 100	> 100	> 100	> 100	> 100	> 41.8	> 100	> 100
O=C(Nc1ccc(Cl)cc1)c1cc(S(=O)(=O)Nc2n[nH]c(=O)[nH]2)c(SSc2cc(Cl)c(C(=O)Nc3ccc(Cl)cc3)cc2S(=O)(=O)Nc2n[nH]c(=O)[nH]2)cc1Cl	> 100	> 100	> 100	> 100	> 100	> 100	> 100	> 100	> 100	> 100	> 100	> 100	> 100
COC(=O)C12CCC(C(=O)OC)(Cc3c(c4ccccc4n3S(=O)(=O)c3ccccc3)C1)C2=O (centres undefined)	> 100	> 100	> 100	> 100	> 100	> 100	> 100	> 100	> 100	> 100	> 100	> 100	> 100
CN1CCc2c(sc3nc(Nc4ccccc4)n(N)c(=O)c23)C1	> 100	> 100	> 100	> 100	88	> 100	> 100	> 100		> 100	> 100		> 100
CC(=O)OCC1C(C(C)OC(C)=O)CCC2C1CCC1(C)C(OC(C)=O)CCC21 (centres undefined)	41.4	32.9	36.5	38.5	31.9	30.7	37	41.4		> 100	42.6	27.9	41.9
C/C(CC(O)(C(F)(F)F)C(F)(F)F)=N\N	> 10	> 10	> 10	> 10	> 10	> 10	> 10	> 10	> 10		> 10	> 10	> 10
C=C1c2nc3ccccc3n2C=C(c2ccc(Cl)cc2)N1c1ccc(OCCN2CCOCC2)cc1	> 100		> 100	> 100	58.8	> 100	> 100		> 100	> 100		> 100	> 100
COc1ccc(/C=C2/C(=O)N(C(=O)c3ccccc3O)N=C2C)cc1OC		> 100	> 100	> 20.8	> 55.6	> 100	> 100	> 100	> 100	> 100	> 100	> 54.2	10.5
O=[N+]([O-])c1cc2n[nH]nc2c2nonc12		> 100	> 100	> 100	47.4	> 100	80.5	> 100	> 100	38.6	59.9	> 100	95.1
NS(=O)(=O)c1nnc(NC(=O)CCC(=O)O)s1	> 100	> 100	> 100	> 100	> 100	> 100	> 100	> 100	> 100	> 100		> 100	> 100
COc1ccc(C2CCc3nc4nc(N)nc(N)c4cc3C2)cc1 (centres undefined)	77.1	> 100	> 100	33.9	> 100	42	> 100	89.6	25.3			30	43.9
CS(C)(=O)=N/C=C\C(=O)C(Cl)(Cl)Cl		> 100	> 100	> 100	> 100	> 100	> 100	> 100	> 100	> 100	> 100	> 100	> 100
O=C(CSc1nc2ccc(I)cc2c(=O)n1Cc1ccccc1)N/N=C/c1ccccc1	43.7	> 100	> 100	20.9	> 100	43.3	> 100	30.9	31.6		> 100	> 100	33.6
CCCCCCc1nn2c(-c3ccc(C)cc3)nnc2s1	> 100	> 100	> 100	> 100	> 100	> 100	> 100	> 100	> 100	> 100			> 100
COC1/C=C/C(C)C(OC)CC(O)/C=C/C(C)C(C(C)C(OC)C(C)CCC(=O)C(C)C(C/C=C/N(C)C=O)OC)OC(=O)/C=C/C=C(\C)CC(OC)C(OC)C2=CC(=O)O[C@@H](C(C)C(OC)C1)[C@H]2O (some centres undefined)	0.0614	0.28		0.0673	0.0849	0.0835	0.159	0.0797	0.104	0.0761		0.025	0.0489
N#CC12COC3(CCCCC3C1(C#N)C#N)OC2=N (centres undefined)	39.3	48.8			22.4	33.3	25.5	43.1	> 100	30.6	22.3	30.3	23.1
NC(=O)c1cnc2sc3ccccc3n2c1=O		> 100	> 100	> 100	> 100	> 100	> 100	> 100	> 100	> 100	> 100	> 100	> 100
O=C(N/N=C(/COc1cccc(Cl)c1)N=Cc1ccncc1)c1ccncc1	> 100	> 100	> 100	> 100	> 100	> 100	> 100	> 100	> 100		> 100	> 100	> 100
